Laboratory results: PubChem BioAssay (NCI)
Where “and” joins values, the source holds several entries; their conditions need not be identical. Equal entries are not always repeated.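 Dose response: 5 concentrations. Exposure: 48 h. Format: 96-well plates. Endpoint: linear interpolation; highest concentration if not reached. Here, GI50 denotes the concentration required for 50% inhibition of growth. TGI: total growth inhibition.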

How the values were obtained:
Assay in all cases: inhibition of tumour cell growth, NCI panel, 48 h
786-0 renal = test system: 786-0 renal
A498 renal = test system: A498 renal
A549 NSCLC = test system: A549 NSCLC
KM12 colon = test system: KM12 colon
LOX IMVI melanoma = test system: LOX IMVI melanoma
MALME-3M melanoma = test system: MALME-3M melanoma
MDA-MB-231 breast = test system: MDA-MB-231 breast
NCI/ADR-RES ovarian = test system: NCI/ADR-RES ovarian
SF-539 CNS = test system: SF-539 CNS
T-47D breast = test system: T-47D breast

| Compound | GI50 (786-0 renal) [µM] | TGI (786-0 renal) | GI50 (A498 renal) [µM] | TGI (A498 renal) | GI50 (A549 NSCLC) [µM] | TGI (A549 NSCLC) | GI50 (KM12 colon) [µM] | TGI (KM12 colon) | GI50 (LOX IMVI melanoma) [µM] | TGI (LOX IMVI melanoma) | GI50 (MALME-3M melanoma) [µM] | TGI (MALME-3M melanoma) [µM] | GI50 (MDA-MB-231 breast) [µM] | TGI (MDA-MB-231 breast) | GI50 (NCI/ADR-RES ovarian) [µM] | TGI (NCI/ADR-RES ovarian) | GI50 (SF-539 CNS) [µM] | TGI (SF-539 CNS) | GI50 (T-47D breast) [µM] | TGI (T-47D breast) [µM] |
| --- | --- | --- | --- | --- | --- | --- | --- | --- | --- | --- | --- | --- | --- | --- | --- | --- | --- | --- | --- | --- |
| C=CC(=O)Nc1cc(C)ccc1Nc1nc(Nc2cc(OC)ncc2C)ncc1C(F)(F)F | 0.692 | > 100 µM | 0.157 | 0.598 µM | 1.02 | 4.59 µM | 1.13 | > 58.1 µM | 0.142 | 1.03 µM | 0.0211 | 0.161 | 0.336 | 1.87 µM | 1.69 | > 26.5 µM | 0.344 | 1.63 µM | 1.2 | > 100 |
| O=C(Cc1ccc(F)c(F)c1)Nc1cc(C2(C(F)(F)F)CC2)nn1Cc1ccccc1 | 4.52 | > 15 µM | 0.548 | 4.35 µM | 4.6 | > 15 µM | 4.41 | > 15 µM | 4.9 | > 15 µM | 2.49 | 7.85 | 3.05 | 7.25 µM | 3.98 | > 15 µM | 4.33 | > 15 µM | 2.96 | 13 |
| CC(C)O/N=C/c1cc(NC(=S)OC(C)C)ccc1Cl |  | > 65.6 µM |  | > 76.5 µM |  | > 90.6 µM |  | > 100 µM |  | > 52.5 µM |  | > 100 |  | 62 µM |  | > 84.9 µM |  | > 78.8 µM |  | > 100 |
| Cc1nc2ccccc2c(/C=C/c2ccc(Cl)cc2)c1C(=O)/C=C/c1ccc(C(F)(F)F)cc1 | 0.33 | 1.26 µM | 1.32 | 2.62 µM | 1.41 | 3.48 µM | 1.28 | 3.46 µM | 0.181 | 0.361 µM | 0.404 | 1.56 | 0.301 | 0.947 µM | 0.619 | 3.63 µM | 0.24 | 0.636 µM | 0.299 | 1.46 |
| [N-]=[N+]=NCCCCCC(=O)OC(C(=O)c1ccccc1)c1cccc(OCC(=O)NCCOCCOCCNC(=O)CCCC[C@@H]2SC[C@@H]3NC(=O)N[C@@H]32)c1 (some centres undefined) | > 100 | > 100 µM | > 100 | > 100 µM | > 100 | > 100 µM | > 100 | > 100 µM | 18.5 | 44.5 µM | > 100 | > 100 | 44 | > 100 µM | > 100 | > 100 µM | 25.3 | 72.7 µM | 60.7 | > 100 |
| COc1cc(C(=O)N2CCN(c3ncnc4ccccc34)CC2)c(N)cc1OCc1ccccc1 | 12.9 | 26.2 µM | 5.47 | 19.2 µM | 16.5 | 50.5 µM | 14.9 | 38.4 µM | 12.2 | 24.6 µM | 13.7 | 30.4 | 13.9 | 35.3 µM | 16.1 | 35.1 µM | 18.6 | 33.2 µM | 7.08 | 40.9 |
| CCN(CC)CC(O)CNc1c2ccc([N+](=O)[O-])cc2nc2cc(OC)c(OC)cc12 (centres undefined) | 0.659 | 3.88 µM | 1.36 | 3.08 µM | 0.262 | 0.854 µM | 0.343 | 1.37 µM | 0.238 | 0.662 µM | 0.249 | 0.573 | 0.244 | 0.883 µM | 4.63 | 18.7 µM | 0.35 | 1.45 µM | 0.369 | 1.62 |
| COc1ccc2c(=O)cc(C(Cl)(Cl)Cl)oc2c1 | 0.324 | 14.1 µM | 0.213 | 3.36 µM | 0.444 | 15.5 µM | 0.32 | 12.5 µM | 0.173 | 5.03 µM | 5.71 | 35.6 | 0.333 | 14.9 µM | 0.296 | 14.2 µM | 0.208 | 0.583 µM | 12.2 | 55.3 |
| O=C(Nc1ccncc1)C(=O)c1cn(S(=O)(=O)c2ccc(Cl)cc2)c2ccccc12 | 3.5 | 45.2 µM | 8.83 | > 74.9 µM | 17.5 | > 100 µM | 0.567 | > 100 µM | 0.765 | > 100 µM | 0.894 | > 100 | 3.69 | 32.3 µM | 0.369 | > 100 µM | 0.696 | 12.5 µM | 0.905 | > 100 |
| O=c1cc(-c2cccc3c2Sc2ccccc2S3)oc(N2CCOCC2)c1 | 4.05 | 18.3 µM | 0.323 | 3.79 µM | 10.4 | 26.7 µM | 8.04 | 21.4 µM | 11.4 | 37.4 µM | 8.81 | 24.4 | 11.8 | 29.5 µM | 12.8 | 42.9 µM | 11.6 | 25.1 µM | 3.69 | 18.2 |
| COc1ccc2ccccc2c1C1NC(=O)c2ccccc2N1 (centres undefined) |  | > 38 µM |  | 8.42 µM |  | > 51.8 µM |  | 19.9 µM |  | 65.2 µM |  | > 100 |  | > 41.8 µM |  | 3.02 µM |  | 5.78 µM |  | > 100 |
| O=C(NCCCO)c1cc(Cl)ccc1O | 3.14 | 11.8 µM | 4.43 | 12.7 µM | 3.24 | 14 µM | 2.43 | 12.9 µM | 2.5 | 11.5 µM | 1.85 | 8.33 | 3.64 | 12.8 µM | 9.31 | 27.9 µM | 4.85 | 17.5 µM | 1.67 | 18 |
| C#Cc1c(/C=C/C(=O)OCC)ccc2ccccc12 | 27.5 | 74 µM | 15.2 | 37.8 µM | 30.4 | > 100 µM | 5.84 | 23.9 µM | 13.1 | 27.4 µM | 13.1 | 41.2 | 13.4 | 35 µM | 21.3 | 59.2 µM | 22.3 | 48.9 µM | 42.8 | > 100 |
| Cc1cc(N2CCOCC2)nc(N[C@@H]2CCC[C@H](Nc3ccnc4cc(Cl)ccc34)C2)n1 | 1.73 | 3.27 µM | 1.57 | 4.4 µM | 3.31 | 8.56 µM | 3.06 | 10.8 µM | 1.71 | 3.3 µM | 1.95 | 3.67 | 1.7 | 3.58 µM | 2.59 | 8 µM | 1.61 | 3.09 µM | 1.68 | 3.71 |
| CC(C)=CCC/C(C)=C/CC/C(C)=C/CSc1ccccc1C(=O)O | 23.1 | 78.9 µM and 32.1 µM | 21.3 | 54.6 µM and 56.7 µM | 28.9 | > 89.4 µM and 43.3 µM |  | 35.8 µM and 33.5 µM | 26.6 | > 68.5 µM and 35.4 µM | 25.6 | 66.2 | 28.3 | 61.7 µM and 55.8 µM | 34.5 | > 100 µM and 47.3 µM | 19.9 | 42.2 µM and 33.9 µM | 33.6 | > 91.3 |
| NCCCCCCCn1c2c(c3ccccc3c1=O)C(=O)c1ccccc1-2 | 1.38 | 2.75 µM | 3.26 | 11.8 µM | 3.27 | 18.3 µM | 1.68 | 3.82 µM | 1.33 | 2.76 µM | 1.98 | 4.01 | 1.85 | 3.79 µM | 2.56 | 7.87 µM | 1.66 | 3.09 µM | 2.01 | 4.27 |
| O=Nc1ccc(NO)c2ccccc12 | 18.6 | 33.1 µM | 18.9 | 36 µM | 18.3 | 38.7 µM | 15.6 | 30.4 µM | 2.78 | 12.1 µM | 5.85 | 19 | 10.3 | 47.5 µM | 2.92 | 15.8 µM | 17.1 | 31.1 µM | 3.67 | 21.4 |
| NCC1OC(n2cnc3c(N)ncnc32)CC1O (centres undefined) |  | > 100 µM |  | > 100 µM |  | > 100 µM |  | > 100 µM |  | > 100 µM |  | > 100 |  | > 100 µM |  | > 100 µM |  | > 100 µM |  | > 100 |
| CC1CCCC(C(O)CC2CC(=O)NC(=O)C2)C1O (centres undefined) |  | > 100 µM |  | > 100 µM |  | > 100 µM |  | > 100 µM |  | > 100 µM |  | > 100 |  | > 100 µM |  | > 100 µM |  | > 100 µM |  | > 100 |
| Cc1nnc(-c2cccc(-c3ccc(C(=O)NCC4CC4)cc3)c2)o1 | > 25 | > 25 µM | > 7.79 | > 25 µM | > 25 | > 25 µM | 15.5 | > 25 µM | > 25 | > 25 µM | > 25 | > 25 | > 25 | > 25 µM | > 25 | > 25 µM | > 25 | > 25 µM | > 16.9 | > 25 |
